pIC50: −log10 of the molar value.

Consider six compounds from patent US20260174878A1, “IRAK4 DEGRADATION AGENT AND USE THEREOF” (LEADINGTAC PHARMACEUTICAL (SHAOXING) CO., LTD., priority 2022, published 2026).

The target of assay [1] is T1, IRAK4 protein in normal human PBMCs (Homo sapiens, UniProt Q9NWZ3).
T1 construct: host or cells: normal human PBMCs
T1 sequence (Q9NWZ3 1-460): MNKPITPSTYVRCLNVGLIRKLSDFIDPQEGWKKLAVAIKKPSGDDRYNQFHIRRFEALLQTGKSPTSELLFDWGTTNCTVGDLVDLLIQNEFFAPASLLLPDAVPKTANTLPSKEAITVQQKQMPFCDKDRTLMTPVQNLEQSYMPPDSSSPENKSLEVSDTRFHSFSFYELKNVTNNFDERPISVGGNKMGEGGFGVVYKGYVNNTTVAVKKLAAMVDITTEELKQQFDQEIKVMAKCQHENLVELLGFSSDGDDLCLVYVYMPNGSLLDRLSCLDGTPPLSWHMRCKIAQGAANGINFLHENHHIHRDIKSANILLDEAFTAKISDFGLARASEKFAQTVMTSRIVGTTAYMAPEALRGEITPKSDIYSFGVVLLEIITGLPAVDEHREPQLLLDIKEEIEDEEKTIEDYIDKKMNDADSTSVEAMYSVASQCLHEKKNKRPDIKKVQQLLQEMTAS
The assay can be described thus: Degradation of IRAK4 protein in normal human PBMCs (AlphaLISA). Conditions: 24 h incubation. Format: cell-based. Put shortly: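 Cryopreserved normal human PBMCs treated with compound at 0.01-3000 nM (0.25% DMSO) for 24 h at 37 °C. IRAK4 in lysates quantified by AlphaLISA against a standard curve and normalized to BCA total protein. Degradation versus control fitted to give DC50 and Dmax.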
On the technique in general: In Alpha technology, singlet oxygen from a donor bead excites a nearby acceptor bead.

Another assay addresses T2, IRAK4 kinase (Homo sapiens, UniProt Q9NWZ3).
T2 construct: purchased Carna
T2 sequence (Q9NWZ3 1-460): T1 sequence (Q9NWZ3 1-460)
The assay can be described thus: IRAK4 kinase activity test (KinEASE-STK S1 HTRF kit). The settings on record: IRAK4 kinase 2.5 nM, 7 μM adenosine triphosphate, 37° C. 120 min. Format: biochemical. The procedure: Then 2.5 nM IRAK4 kinase (Carna), 1 μM biotinylated polypeptide substrate (Cisbio), and 7 μM adenosine triphosphate (Sigma-Aldrich) were sequentially added, and the mixtures were incubated at 37° C. for 120 min. Subsequently, an anti-phosphoserine/threonine antibody (Cisbio) conjugated with a europium element compound and streptavidin conjugated with a modified XL665 (Cisbio) were added to the reaction system to stop the reaction. After 1 h of incubation at room temperature, the fluorescence intensity of each well was measured at the excitation wavelength of 337 nm and the emission wavelengths of 620 nm and 665 nm with a microplate reader EnVision (PerkinElmer) in the HTRF mode, and Ratio values were calculated using the formula: Ratio=(665 nm/620 nm)×10^4. The inhibition rates of the compounds at each concentration were calculated by comparison with the fluorescence intensity ratio of the control group. Then non-linear curve fittings for logarithmic concentration-inhibition rate were performed using GraphPad Prism 7, and the IC50 values of the compounds were obtained.
(In general: Time-resolved FRET reads energy transfer from a long-lived donor to a nearby acceptor.)

Assay [2] deals with imiquimod-induced mouse psoriasis model. The assay can be described thus: Imiquimod-induced C57 mouse psoriasis model. The format is in vivo, C57BL/6 mice. Conditions: p<0.0001. The procedure:
Then 10% of the total volume of Solutol was added, and the mixture was subjected to vortex ultrasonic treatment until clear. […] The compound was formulated fresh for each use.
B. Imiquimod sensitization and drug intervention on C57BL/6J mice were conducted, with specific administration times shown in Table 6. • i. On Day 1, the backs of the mice were shaved, ensuring consistent area using a mold, approximately 2 cm×3 cm, and 60 mice were selected; • ii. the mice were randomly divided into 6 groups based on body weight and right ear thickness, with 10 mice per group; • iii. 6 to induce psoriasis symptoms in the model mice, imiquimod was applied on the back skin and right ear of the mice in groups G2-G6 for sensitization at noon on Day 0, and this continued for 7 days. • iv. […] Endpoint sampling of the mice was performed on Day 5 or Day 7.
• Clinical score and right ear thickness.

Turning to `COc1cc2nn([C@H]3CC[C@](O)(COCC4CCN(C(=O)c5ccc(Cl)c(N6CCC(=O)NC6=O)c5)CC4)CC3)cc2cc1NC(=O)c1cccc(C(F)(F)F)n1` [Example 33, N-(2-((1S,4S)-4-(((1-(4-chloro-3-(2,4-dioxotetrahydropyrimidin-1(2H)-yl)benzoyl)piperidin-4-yl)methoxy)methyl)-4-hydroxycyclohexyl)-6-methoxy-2H-indol-5-yl)-6-(trifluoromethyl)pyridinecarboxamide], in assay [1], the DC50 worked out at 1.58 nM and the Dmax was 98.6%. In addition, on IRAK4 kinase, the pIC50 was 7.97.
Regarding `COc1cc2nn([C@H]3CC[C@](O)(COCCC4CCN(C(=O)c5ccc(Cl)c(N6CCC(=O)NC6=O)c5)CC4)CC3)cc2cc1NC(=O)c1cccc(C(F)(F)F)n1` [Example 34], in assay [1], the DC50 worked out at 1.32 nM and the Dmax came out at 99.1%. This compound showed a pIC50 at IRAK4 kinase of 7.89.
Consider `COc1cc2nn([C@H]3CC[C@](O)(CN(C)CC4CCC5(CC4)CCN(C(=O)c4ccc(Cl)c(N6CCC(=O)NC6=O)c4)CC5)CC3)cc2cc1NC(=O)c1cccc(C(F)(F)F)n1` [Example 35], for which, in assay [1], the DC50 was determined as 0.65 nM and the Dmax came out at 99.7%. This compound also had a negative logarithm of the IC50 (pIC50) against IRAK4 kinase of 7.82.
In assay [1], `COc1cc2nn([C@H]3CC[C@@](COCCC4CCN(C(=O)c5ccc(Cl)c(N6CCC(=O)NC6=O)c5)CC4)(OC)CC3)cc2cc1NC(=O)c1cccc(C(F)(F)F)n1` [Example 36] registered a DC50 of 2.03 nM and a Dmax of 98.6%. The same compound showed a pIC50 at IRAK4 kinase of 8.03.
In the case of `C=C1/C(=C\C=C2/CCC[C@]3(C)[C@@H]([C@H](C)CCCC(C)(C)O)CC[C@@H]23)C[C@@H](O)C[C@@H]1O` [calcitriol], the “inhibition rate relative to vehicle control (AUC of clinical score)” value in assay [2] (ointment 75 mg back + 24 mg right ear/mouse topical QD) came out at 44.5%.
Turning to `CC(=O)OCC(=O)[C@@]1(O)[C@H](C)C[C@H]2[C@@H]3CCC4=CC(=O)C=C[C@]4(C)[C@@]3(F)[C@@H](O)C[C@@]21C` [dexamethasone, Dexamethasone acetate], in assay [2] (5 mpk p.o. QD), the “inhibition rate relative to vehicle control (AUC of clinical score)” value came to 20.7%.

For orientation: DC50 means the concentration giving 50% degradation. A lower DC50 goes with degradation at low concentration. One may read the Dmax as the greatest extent of degradation seen. The low end stands for a partial loss of target, the high end for a fuller loss of target. In general, pIC50 refers to −log10 of the IC50, conventionally taken in molar units. A low value points to a high IC50.
